Test results taken from PubChem BioAssay (NCI).
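Grown in 96-well plates, cells were treated for 48 hours with each compound at five concentrations. Insufficient inhibition: endpoint recorded as highest concentration tested. Abbreviation: GI50, concentration required for 50% inhibition of growth. TGI: total growth inhibition.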

Columns and labels:
Assay in all cases: growth of human tumour cells (NCI), 48 h
[1] = system: HCT-15 colon
[2] = system: NCI-H522 lung
[3] = system: IGROV1 ovarian
[4] = system: SN12C renal
[5] = system: HT29 colon
[6] = system: SF-539 CNS
[7] = system: SR leukemia
[8] = system: NCI-H460 lung
[9] = system: OVCAR-8 ovarian
[10] = system: SNB-19 CNS

| SMILES | TGI [1] | GI50 [2] | TGI [2] | TGI [3] | TGI [4] | TGI [5] | TGI [6] | GI50 [7] | TGI [7] | GI50 [8] | TGI [8] | GI50 [9] | TGI [9] | TGI [10] | GI50 [1] | GI50 [3] | GI50 [4] | GI50 [5] | GI50 [6] | GI50 [10] |
| --- | --- | --- | --- | --- | --- | --- | --- | --- | --- | --- | --- | --- | --- | --- | --- | --- | --- | --- | --- | --- |
| Nc1ccn(C2O[C@H](CO)[C@@H](O)[C@@H]2O)c(=O)n1 (stereo partly drawn) | > 100 µM | 26.5 µM | > 100 µM | > 100 µM | > 100 µM | > 100 µM | > 100 µM | > 100 µM | > 100 µM | 23 µM | > 100 µM | 53.8 µM | > 100 µM | > 100 µM |  |  |  |  |  |  |
| O=C(N/N=C/c1ccccc1O)c1cccc([N+](=O)[O-])c1 | > 100 µM |  | > 100 µM | 79.6 µM | > 100 µM | > 100 µM | > 82.1 µM |  | > 100 µM |  | > 100 µM |  | > 100 µM | > 100 µM |  |  |  |  |  |  |
| CCN(CC)c1c(C(=O)/C=C/c2ccccc2)c(-c2ccccc2)nn(C)c1=O |  |  | > 100 µM | > 100 µM | > 100 µM | > 100 µM | > 100 µM |  | > 100 µM |  | > 100 µM |  | > 100 µM | > 100 µM |  |  |  |  |  |  |
| OCCC1(O)CCC(O)CC1 (stereo not drawn) | > 100 µM |  | > 100 µM | > 100 µM |  | > 100 µM | > 100 µM |  | > 100 µM |  | > 100 µM |  | > 100 µM | > 100 µM |  |  |  |  |  |  |
| CC1(C)CC(/C=C2/OC(=O)c3ccccc32)=C(C#N)C(=O)O1 | > 100 µM |  | > 100 µM | > 100 µM | > 100 µM | > 100 µM | > 100 µM |  | > 100 µM |  | > 100 µM |  | > 100 µM | > 100 µM |  |  |  |  |  |  |
| Cc1ccc(S(=O)(=O)C(CC(=O)N2CCCC2)C(=O)c2ccccc2)cc1 (stereo not drawn) |  |  | > 100 µM | > 100 µM | > 100 µM | > 100 µM | > 100 µM |  | > 100 µM |  | > 100 µM |  | > 100 µM | > 100 µM |  |  |  |  |  |  |
| Cc1ccc(C)c(NC(=O)CC/C(=N\NC(=O)C(=O)NN)C(C)C(=O)c2ccc(O)cc2)c1 (stereo not drawn) | > 100 µM |  | > 100 µM | > 100 µM | > 100 µM | > 100 µM | > 100 µM |  | > 100 µM |  | > 100 µM |  |  | > 100 µM |  |  |  |  |  |  |
| Cc1cc(N(CCOS(C)(=O)=O)CCOS(C)(=O)=O)ccc1C=Nc1ccc(-c2nc(Cc3ccccc3)sc2C)cc1 | 35.2 µM |  | 0.648 µM | 28 µM | 26.3 µM | 21.4 µM | 14.8 µM |  | 18.5 µM |  | 5.03 µM |  | 41.8 µM | 43.9 µM |  |  |  |  |  |  |
| Cc1nc2cccc([N+](=O)[O-])c2c(NCCCN(C)C)c1C | > 52.8 µM |  | 40.6 µM | > 100 µM | 16.1 µM | 55.3 µM | > 100 µM |  | > 57.5 µM |  | > 59.6 µM |  | > 54.7 µM | > 100 µM |  |  |  |  |  |  |
| CCCCCCCCCCCC(=O)CC(=O)c1c(O)cccc1O | 47.4 µM |  | 65.3 µM | 36.4 µM | 33.6 µM | 33.7 µM | 35.5 µM |  | 45.8 µM |  | 35.7 µM |  | 30.6 µM | 36.8 µM |  |  |  |  |  |  |
| Cc1ccc(-c2c3c([nH]c(=O)c2C#N)-c2cc(F)ccc2OC3)cc1 | > 100 µM | 19 µM | 59.2 µM | > 100 µM | > 100 µM | > 100 µM | > 100 µM | > 100 µM | > 100 µM | 53.4 µM | > 100 µM | > 100 µM | > 100 µM | > 100 µM | 91 µM | 52.3 µM | > 100 µM | > 100 µM | > 100 µM | 70.4 µM |
| CNC(=O)OCc1c(COC(=O)NC)c(-c2ccc(Cl)c(Cl)c2)n2c1SCC2 | 28.1 µM |  | 21.5 µM | 26.9 µM | 34 µM | 37.5 µM | 26.9 µM |  | 39 µM |  | 19.9 µM |  | 39.8 µM | > 84.9 µM |  | 3.16 µM |  |  |  |  |
| CC1OC(n2cc(F)c(=O)[nH]c2=O)CCC1O (stereo not drawn) | > 100 µM |  | > 100 µM | > 100 µM | > 100 µM | > 100 µM | 84.4 µM |  | > 100 µM |  | > 100 µM |  | > 100 µM | > 100 µM |  |  |  |  |  |  |
| CN1CCN(Cc2ccc(NC(=O)c3cncc(C#Cc4cnc(N)c5ccc(C#N)cc45)c3)cc2C(F)(F)F)CC1 | 0.787 µM | 0.088 µM | 1.69 µM |  | 0.611 µM | 0.838 µM | 0.598 µM | 0.0464 µM | 2.4 µM | 0.0976 µM | 1.1 µM | 0.141 µM | 1.32 µM |  | 0.122 µM |  | 0.0218 µM | 0.0211 µM | 0.101 µM |  |
| Cc1c(C(=O)N/N=C/c2ccc(Cl)cc2)nnn1-c1ccnc2c(C(F)(F)F)cccc12 | 16.3 µM | 11.8 µM | 35.2 µM | 37 µM | 15.5 µM |  | 25.8 µM | 3.6 µM | 12.3 µM | 4.49 µM | 15.8 µM | 2.25 µM | 4.71 µM | 30.2 µM | 2.88 µM | 9.06 µM | 3.51 µM |  | 12.6 µM | 12.1 µM |
| O=C(O)CCCCC(CCSCc1ccccc1)SCc1ccccc1 (stereo not drawn) | > 100 µM | 34.1 µM | > 100 µM | > 100 µM | > 100 µM | > 100 µM | > 100 µM | 36.1 µM | > 100 µM | 33.4 µM | > 100 µM | > 63.6 µM | > 100 µM | > 100 µM | 33.1 µM | 42.4 µM | 41.4 µM | 65.3 µM | 66.5 µM | 42.9 µM |
| CSc1cc(N=Nc2nc3ccccc3s2)c2ccccc2c1O | 20.2 µM | 1.82 µM | 13.1 µM | 24.3 µM | 12.9 µM |  | 3.87 µM | 0.973 µM | 19.4 µM | 7.83 µM | 17.6 µM | 13.6 µM | 39 µM | 25.7 µM | 8.31 µM | 7.64 µM | 6.1 µM |  | 0.0413 µM | 9.59 µM |
| COC(=O)CCCCN=Cc1c(O)c(O)c(C(C)C)c2cc(C)c(-c3c(C)cc4c(C(C)C)c(O)c(O)c(C=NCCCCC(=O)OC)c4c3O)c(O)c12 | > 32.5 µM | 0.838 µM | 4.43 µM | > 32.5 µM | > 32.5 µM | 17.1 µM | > 32.5 µM | 0.917 µM | 5.72 µM | 1.04 µM | 9.48 µM | 0.959 µM | > 32.5 µM | > 32.5 µM | 1.06 µM | 1.41 µM | 1.14 µM | 0.978 µM | 1.53 µM | 0.713 µM |
